The source of these data is ChEMBL document CHEMBL5584278, “Deciphering the Selectivity of CBL-B Inhibitors Using All-Atom Molecular Dynamics and Machine Learning” (ACS Med Chem Lett, 2024).

The nature of experiment [1]: Inhibition of C-CBL (unknown origin). Further details: species or system Homo sapiens.
Experiment [2] has as its target E3 ubiquitin-protein ligase CBL-B (Homo sapiens, UniProt Q13191). Description: Inhibition of CBL-B (unknown origin).
For a further experiment, the species on record is Homo sapiens. The experiment can be described thus: Selectivity ratio of IC50 for c-CBL (unknown origin) to IC50 for CBL-B (unknown origin).

Usually IC50 stands for the midpoint of a concentration-inhibition curve. Low readings indicate inhibition by little substance, high ones a need for much substance.

E3 ubiquitin-protein ligase CBL-B, sequence (Q13191 whole entry): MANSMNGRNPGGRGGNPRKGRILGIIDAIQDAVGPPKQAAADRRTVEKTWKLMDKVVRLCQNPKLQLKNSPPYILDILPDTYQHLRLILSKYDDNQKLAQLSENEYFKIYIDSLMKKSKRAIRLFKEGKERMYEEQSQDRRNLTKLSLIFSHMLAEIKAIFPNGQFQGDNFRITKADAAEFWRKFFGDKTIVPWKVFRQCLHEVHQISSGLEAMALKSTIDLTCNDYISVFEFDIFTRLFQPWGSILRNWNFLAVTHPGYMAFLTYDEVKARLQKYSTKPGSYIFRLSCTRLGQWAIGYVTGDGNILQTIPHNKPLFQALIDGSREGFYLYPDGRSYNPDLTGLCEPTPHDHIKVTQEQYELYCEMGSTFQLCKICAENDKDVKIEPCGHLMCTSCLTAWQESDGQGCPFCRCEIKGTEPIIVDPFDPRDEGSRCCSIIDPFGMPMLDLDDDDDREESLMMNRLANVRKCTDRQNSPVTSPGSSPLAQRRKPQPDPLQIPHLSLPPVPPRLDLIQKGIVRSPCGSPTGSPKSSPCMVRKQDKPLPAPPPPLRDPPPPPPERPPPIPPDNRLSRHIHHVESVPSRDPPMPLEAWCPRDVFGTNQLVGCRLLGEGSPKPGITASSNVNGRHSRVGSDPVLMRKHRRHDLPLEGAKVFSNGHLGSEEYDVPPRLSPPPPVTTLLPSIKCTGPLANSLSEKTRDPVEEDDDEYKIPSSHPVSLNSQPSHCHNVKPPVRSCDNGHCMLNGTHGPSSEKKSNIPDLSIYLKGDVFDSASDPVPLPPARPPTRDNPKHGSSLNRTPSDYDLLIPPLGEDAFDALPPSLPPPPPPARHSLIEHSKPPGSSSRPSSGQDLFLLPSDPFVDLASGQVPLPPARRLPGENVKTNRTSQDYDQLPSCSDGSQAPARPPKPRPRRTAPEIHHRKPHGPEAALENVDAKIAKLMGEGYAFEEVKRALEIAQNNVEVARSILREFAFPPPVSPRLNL

On to `CC1CC(c2cccc(N3C(=O)c4cc(CNC5(C)CCC5)cc5c(F)ccc3c45)c2)(c2nncn2C)C1` (configuration not stated), for which the IC50 in experiment [1] is around 165 nM; in experiment [2] it was around 16.5 nM. In addition, the Ratio IC50 in the experiment listed under Homo sapiens is 10.

Regarding `CC1CC(c2cccc(-c3nc4cc(CN5CCC[C@H](C)C5)cc(C(F)(F)F)c4[nH]3)c2)(c2nncn2C)C1` (some centres not stated), the half-maximal inhibitory concentration (IC50) in experiment [2] was around 200 nM.

For `COCCNCc1cc(C(F)(F)F)c2oc(-c3cccc(-c4ccc(F)cc4-c4nncn4C)c3)nc2c1`, the IC50 in experiment [1] was around 10000 nM; in experiment [2], around 200 nM. Besides, the Ratio IC50 in the experiment filed under Homo sapiens came to 50.

Take `CO[C@H]1C[C@@](c2cccc(N3Cc4c(cc(CNC5(C)CCC5)cc4C(F)F)C3=O)c2)(c2nncn2C)C1`: the IC50 in experiment [1] was around 150 nM; in experiment [2], around 25 nM. Further, in the experiment filed under Homo sapiens, the Ratio IC50 stood at 6.

Consider `CC1CC(c2cccc(N3Cc4c(cc(CN5CCC[C@H](C)C5)cc4C(F)(F)F)C3=O)c2)(c2nncn2C)C1` (some centres not stated), for which the figures for the IC50 in experiment [1] and in experiment [2] were around 20 nM and around 5 nM, respectively. Besides, in the experiment listed under Homo sapiens, the Ratio IC50 is 4.

`Cn1cnnc1CC1(c2cccc(N3CC4=C(C(F)(F)F)C=C(CN5CCC(C)(F)CC5)CN4C3=O)c2)COC1`: the IC50 in experiment [1] is around 60 nM; in experiment [2], around 6 nM. Further, the Ratio IC50 in the experiment listed under Homo sapiens worked out at 10.

Consider `CC1CC(c2cccc(-c3nc4c(C(F)(F)F)cc(CN5CCC[C@H](C)C5)cc4[nH]3)c2)(c2nncn2C)C1` (some centres not stated), for which the IC50 in experiment [1] is around 10000 nM. For the same compound, the Ratio IC50 in the experiment filed under Homo sapiens came to 50.

For the compound `Cn1cnnc1C1(c2cccc(N3Cc4c(cc(CNC5(C)CCC5)cc4C(F)(F)F)C3=O)c2)CC2(CC(F)(F)C2)C1`, the figures for the IC50 in experiment [1] and in experiment [2] were around 120 nM and around 21 nM, respectively. Further, the Ratio IC50 in the experiment listed under Homo sapiens is 6.

Turning to `C[C@H](c1cc(C(F)(F)F)c2nc(-c3cccc(CC4(c5nncn5C)COC4)c3)[nH]c2c1)N1CCC2(CC2)C1`, the values for the IC50 in experiment [1] and in experiment [2] were around 10000 nM and around 200 nM, respectively. Moreover, the Ratio IC50 in the experiment listed under Homo sapiens stood at 50.

Regarding `Cn1cnnc1[C@H](c1cccc(N2Cc3c(Cl)cc(CNC4(C)CCC4)cc3C2=O)c1)[C@H]1C[C@@H](F)C1`, the figures for the IC50 in experiment [1] and in experiment [2] were around 1100 nM and around 170 nM, respectively. Moreover, the Ratio IC50 in the experiment listed under Homo sapiens worked out at 6.5.
